Assay results as given in BindingDB's records for doi:10.1124/mol.63.6.1329 (University of Milan, 2003).

Target: Neuronal acetylcholine receptor subunit alpha-6 (Gallus gallus, UniProt P49581)
Sequence (P49581 whole entry): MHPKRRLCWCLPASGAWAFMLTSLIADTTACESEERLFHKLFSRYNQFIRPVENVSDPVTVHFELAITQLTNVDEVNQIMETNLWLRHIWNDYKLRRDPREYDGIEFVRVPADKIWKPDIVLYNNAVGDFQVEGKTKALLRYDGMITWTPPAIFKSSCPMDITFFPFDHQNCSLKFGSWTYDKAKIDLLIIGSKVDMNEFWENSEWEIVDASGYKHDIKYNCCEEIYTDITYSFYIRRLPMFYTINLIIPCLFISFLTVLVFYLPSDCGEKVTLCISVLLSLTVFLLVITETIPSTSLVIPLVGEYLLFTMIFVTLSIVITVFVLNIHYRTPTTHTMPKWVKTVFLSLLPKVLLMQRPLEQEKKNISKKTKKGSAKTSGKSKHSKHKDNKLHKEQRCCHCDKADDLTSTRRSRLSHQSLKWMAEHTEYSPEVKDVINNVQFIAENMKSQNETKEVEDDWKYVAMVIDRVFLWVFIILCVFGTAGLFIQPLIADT

CC[N+](CC)(CC)CCOc1ccc(C=Cc2ccccc2)cc1 [CAS_17360]
Ki: 4.52 µM

C[N+](C)(C)CCCCCC[N+](C)(C)C [Hexamethoniumdibromide]
Ki: > 10 µM

COC1CC=C2CCN3CCC4=C(CC(=O)OC4)C23C1 (configuration not stated) [NSC_31762]
Ki: 2.8 µM

C[N+](C)(C)CCCCCCCCCC[N+](C)(C)C [Decamethonium Iodide]
Ki: > 10 µM

CN1CCC[C@H]1c1cccnc1 [(R,S)-nicotine]
Ki: 0.02 µM

COc1cc2c3cc1Oc1cc(ccc1O)CC1c4c(cc(OC)c(O)c4Oc4ccc(cc4)CC3N(C)CC2)CC[N+]1(C)C (configuration not stated) [CAS_64645]
Ki: 7.7 µM

CC(C)C[C@@H]1NC(=O)[C@H](CC(N)=O)NC(=O)[C@H](CO)NC(=O)[C@H](Cc2cnc[nH]2)NC(=O)[C@H](CCC(=O)O)NC(=O)[C@H](CC(C)C)NC(=O)[C@H](Cc2cnc[nH]2)NC(=O)[C@@H]2CSSC[C@H](NC(=O)CN)C(=O)N[C@@H](CSSC[C@@H](C(N)=O)NC1=O)C(=O)N[C@@H](CO)C(=O)N[C@@H](CC(N)=O)C(=O)N1CCC[C@H]1C(=O)N[C@@H](C(C)C)C(=O)N2 [Gly-L-Cys(1)-L-Cys(2)-L-Ser-L-Asn-L-Pro-L-Val-L-Cys(1)-L-His-L-Leu-L-Glu-L-His-L-Ser-L-Asn-L-Leu-L-Cys(2)-NH2]
Ki: 0.066 µM
